For data set [1], the target named is T1, human carbonic anhydrase isoenzyme II (hCA II) (Homo sapiens, UniProt P00918).
T1 construct: human carbonic anhydrase isoenzyme II from erythrocytes (Sigma-Aldrich); purchased Sigma-Aldrich; host or cells: human erythrocytes (natural source)
The data set is described as follows: In vitro inhibition of human carbonic anhydrase isoenzyme II (hCA II), dansylamide fluorescence. It is filed as biochemical. The following applies: hCA II from erythrocytes 10^-7 M, 60 min, single measurements, read-out: hCA II inhibiting effect in vitro, IC50. As to the method: 1. In vitro Inhibition of Human Carbonic Anhydrase Isoenzyme II (hCA II)
The test compounds of Formula I in 96 well microplates were diluted with aqua bidest by using an automatic pipettor (CyBiWell®). From the different dilution plates, aliquots of 20 μl were transferred to the 96 well black assay plates with a pipetting station (Tecan Genesis®). In a second step, 148 μl of potassium phosphate buffer (20 mM, pH 7.4) was added, and as a third step, 20 μl of enzyme solution (1 μM human carbonic anhydrase isoenzyme II from erythrocytes (Sigma-Aldrich), dissolved in potassium phosphate buffer) incubated for 60 min at room temperature and the fluorescence signal (Tecan Ultra® fluorescence reader; excitation wavelength: 280 nm; emission wavelength: 465 nm) read at the end of the preincubation period (FLU-1). After the preincubation time, 20 μl of aqueous dansylamide solution (1 mM dansylamide (Sigma-Aldrich), dissolved in hydrochloric acid) were added and the fluorescence signal read every 10 min for a period of 60 min at 37° C. For calculation, the fluorescence data of the time point 60 min (FLU-2) were used. The total volume of assay mixture amounted to 208 μl. The final concentration of carbonic anhydrase II was 10^−7 M/L, of dansylamide 2.25×10^−6 and of compounds from 10^−8 M/L up to 10^−5 M/L. Final concentration of DMSO as compound solvent was […]. Each microplate also contained blanks without compound and enzyme, controls without compound and ethoxzolamide (final concentration 5×10^−8 M/L). All data reflect single measurements. Data were expressed as % inhibition after calculation by the formula: % inhibition=100((1−(FLU−2cpd−FLU−2blank−FLU−1cpd+FLU−1blank)/(FLU−2control−FLU−2blank−FLU−1control−FLU−1blank))
The % inhibition data for each compound and the respective final concentrations were used for IC50 calculations by using the Prism 4 software. Concentration action figures were calculated by applying the Prism algorithm for nonlinear regression (curve-fit): sigmoidal dose response with variable slope and the constraints: top: 100 and bottom 0.

For the next data set, the system named is male fatty Zucker rats. The data set is described as follows: In vivo oral glucose tolerance test in the rat. The following applies: 100 mg/kg/day oral gavage; for Glucose Baseline / Insulin Baseline: 0 min sample before glucose challenge; for Insulin Baseline / Insulin AUC / Insulin Maximal effect: plasma; for Glucose Maximal effect / Glucose AUC / Insulin AUC / Insulin Maximal effect: oral glucose challenge 1.25 g/kg; for Glucose AUC / Insulin AUC: 0-120 min. As to the method:
2. In vivo Oral Glucose Tolerance Test in the Rat
The studies were carried out in individually housed male fatty Zucker rats (n=10 per group) weighing ca. 250-500 g. The rats were kept on a normal 12/12 h light/dark cycle (lights on 07.00) and they were allowed food (lab chow) and water ad libitum except for during experiments, when they were fasted overnight before the glucose challenge.
The test substances of Formula I were suspended in 2% polyethylenglycol (=PEG) 1% carboxymethylcellulose and administered by oral gavage at a dose of 100 mg/kg/day; ⅓ of the dose (1 ml/kg, 33 mg/ml) was administered at 08.30-09.30 h; the remaining […] (2 ml/kg; 33 mg/ml) was administered between 16.00-17.00 h and the last ⅓ dose was given the following morning. Control animals received only the vehicle. On the day of the test, 45 min after the final dose of test substance/vehicle a blood sample (0 min) was taken (tail vein) immediately after which the rats received an oral glucose challenge (1.25 g/kg; 118 mg/ml). Further blood samples were taken at 30, 60, 90, 120 min after the glucose challenge. The second drop of blood of each sample was placed on a glucose test strip before this was placed in the glucose meter for determination of blood glucose level (Life Scan One Touch Ultra Blood® Glucose Meter and Life Scan One Touch Ultra® Test Strips; Life Scan Inc.; Milpitas, Calif. 95035). The remaining blood of each sample was spun and the plasma was frozen at −80° C. before analysis for insulin (1-2-3 Rat Insulin ELISA kit, Alpco Diagnostics).
The values obtained were plotted and the AUC for test compounds and vehicle (for glucose and insulin) were determined after which the percent control AUC, percent control maximum value and % control baseline were estimated, to determine the influence of the test compound on the glucose tolerance.

In a further data set the test system is male C57Bl/6 mice. The data set is described as follows: Acute in vivo food intake test in mice. Conditions: high caloric diet, 100 mg/kg/day oral gavage in two halves. How it is done:
3. Acute in vivo Food Intake Test in Mice
The studies were carried out in individually housed male C57Bl/6 mice (n=8 per group). The mice were kept on an inverted 12/12 h light/dark cycle (lights on 22:00). They were allowed food (high caloric diet) and water ad libitum. Food intake and water consumption was measured daily. The test compound of Formula I was suspended in 1% methylcellulose in water and 2% (v/v) of Poloxamer 188 (Lutrol F68®) and administered by oral gavage at a dose of 100 mg/kg/day.
In the test model described above, the test substances caused a decrease of the animals' 24 h food intake to the percentages of food intake when compared to control as given in table 3 below.

The values that follow come from US20050261292A1, “Pharmaceutical composition containing N-sulfamoyl-N'-arylpiperazines for the treatment or inhibition of obesity and related conditions” (Solvay Pharmaceuticals GmbH, priority 2004, published 2005).

SMILES strings stand for the structures. Where a name gives a salt, the structure may show the parent alone.

Turning to `NS(=O)(=O)N1CCN(c2ccncc2)CC1` (as salt: HCl) [Example 6, 4-pyridin-4-yl-piperazine-1-sulfonic acid amide], the melting point came out at 243 °C.
As to `Cc1cccc(N2CCN(S(N)(=O)=O)CC2)c1C` (as salt: HCl) [Example 8], the melting point came to 202 °C.
Same read-out and setting: for `NS(=O)(=O)N1CCN(c2ccc(F)cc2)CC1` (as salt: HCl) [Example 9, 4-(4-fluoro-phenyl)-piperazine-1-sulfonic acid amide] the value was 125 °C; for `Cc1ccc(Cl)cc1N1CCN(S(N)(=O)=O)CC1` (as salt: HCl) [Example 11], 190 °C; for `NS(=O)(=O)N1CCN(c2ccc(Cl)c(C(F)(F)F)c2)CC1` (as salt: HCl) [Example 12, 4-(4-chloro-3-trifluoromethyl-phenyl)-piperazine-1-sulfonic acid amide], 180 °C.
`N#Cc1cccnc1N1CCN(S(N)(=O)=O)CC1` (as salt: HCl) [Example 13] had a melting point of 190 °C.
Same read-out and setting: under `NS(=O)(=O)N1CCN(c2ncc(C(F)(F)F)cc2Cl)CC1` (as salt: HCl) [Example 14, 4-(3-chloro-5-trifluoromethyl-pyridin-2-yl)-piperazine-1-sulfonic acid amide] stands 159 °C; under `CC(=O)c1ccc(N2CCN(S(N)(=O)=O)CC2)cc1` (as salt: HCl) [Example 15], 156 °C; under `NS(=O)(=O)N1CCN(c2c(Cl)cncc2Cl)CC1` (as salt: HCl) [Example 16], 206 °C.
For the compound `NS(=O)(=O)N1CCN(c2cc(C(F)(F)F)nc3ccccc23)CC1` (as salt: HCl) [Example 17], the melting point worked out at 191 °C.
Still for that read-out and setting: under `NS(=O)(=O)N1CCN(c2nccc(C(F)(F)F)n2)CC1` (as salt: HCl) [Example 18] stands 156 °C; under `NS(=O)(=O)N1CCN(c2ccc(C(F)(F)F)cn2)CC1` (as salt: HCl) [Example 19], 169 °C; under `NS(=O)(=O)N1CCN(c2ccc(C(F)(F)F)cc2[N+](=O)[O-])CC1` (as salt: HCl) [Example 20], 134 °C.
Still for that read-out and setting: under `CS(=O)(=O)c1ccc(N2CCN(S(N)(=O)=O)CC2)c(F)c1` (as salt: HCl) [Example 21] stands 184 °C.
Turning to `COc1ccccc1N1CCN(S(N)(=O)=O)CC1` [Example 3, 4-(2-Methoxy-phenyl)-piperazine-1-sulfonic acid amide hydrochloride], the IC50 in data set [1] amounted to 7.8 µM.
Still for that read-out and setting: for `NS(=O)(=O)N1CCN(c2ccccn2)CC1` [Example 4, 4-Pyridin-2-yl-piperazine-1-sulfonic acid amide] the value was 3.7 µM.
In the case of `NS(=O)(=O)N1CCN(c2ccncc2)CC1` [Example 6, 4-pyridin-4-yl-piperazine-1-sulfonic acid amide], in the data set on male fatty Zucker rats, the “Glucose Baseline” value is on record as 91 % of control, the “Insulin Baseline” value is on record as 109 % of control, the “Glucose Maximal effect” value was 84 % of control and the “Glucose AUC” value is on record as 89 % of control. In the data set with male fatty Zucker rats, the “Insulin AUC” value was 104 % of control and the “Insulin Maximal effect” value was 123 % of control.
With `NS(=O)(=O)N1CCN(c2ncccn2)CC1` [Example 7, 4-pyrimidin-2-yl-piperazine-1-sulfonic acid amide], in data set [1], the IC50 was found to be 1.8 µM. Further, the “24 h food intake” value in the data set with male C57Bl/6 mice is listed as 78 % of control.
Take `Cc1cccc(N2CCN(S(N)(=O)=O)CC2)c1C` [Example 8]: the IC50 in data set [1] stood at 1.7 µM.
On to `NS(=O)(=O)N1CCN(c2ccc(F)cc2)CC1` [Example 9, 4-(4-fluoro-phenyl)-piperazine-1-sulfonic acid amide], for which, in data set [1], the IC50 was 7.3 µM.
The same measure, in the same setting: for `NS(=O)(=O)N1CCN(c2cccc(Cl)c2)CC1` [Example 10] the value was 4 µM.
The same measure, in the same setting: for `Cc1ccc(Cl)cc1N1CCN(S(N)(=O)=O)CC1` [Example 11] the value was 0.5 µM.
Take `NS(=O)(=O)N1CCN(c2ccc(Cl)c(C(F)(F)F)c2)CC1` [Example 12, 4-(4-chloro-3-trifluoromethyl-phenyl)-piperazine-1-sulfonic acid amide]: the IC50 in data set [1] came to 1.2 µM. Also, in the data set on male C57Bl/6 mice, the “24 h food intake” value is 53 % of control.
For `N#Cc1cccnc1N1CCN(S(N)(=O)=O)CC1` [Example 13], the IC50 in data set [1] turned out to be 0.9 µM.
As to `NS(=O)(=O)N1CCN(c2ncc(C(F)(F)F)cc2Cl)CC1` [Example 14, 4-(3-chloro-5-trifluoromethyl-pyridin-2-yl)-piperazine-1-sulfonic acid amide], the IC50 in data set [1] came out at 0.2 µM. Further, in the data set with male fatty Zucker rats, the “Glucose Baseline” value is recorded as 88 % of control, the “Insulin Baseline” value is on record as 97 % of control, the “Glucose Maximal effect” value is reported as 94 % of control and the “Glucose AUC” value is 102 % of control. Also, in the data set on male fatty Zucker rats, the “Insulin AUC” value is on record as 107 % of control and the “Insulin Maximal effect” value is given as 92 % of control.
For `CC(=O)c1ccc(N2CCN(S(N)(=O)=O)CC2)cc1` [Example 15], the IC50 in data set [1] came to 0.4 µM. Moreover, the “24 h food intake” value in the data set on male C57Bl/6 mice is given as 79 % of control.
Take `NS(=O)(=O)N1CCN(c2c(Cl)cncc2Cl)CC1` [Example 16]: the IC50 in data set [1] was determined as 0.3 µM.
Same read-out and setting: under `NS(=O)(=O)N1CCN(c2cc(C(F)(F)F)nc3ccccc23)CC1` [Example 17] stands 1.9 µM.
Same read-out and setting: under `NS(=O)(=O)N1CCN(c2nccc(C(F)(F)F)n2)CC1` [Example 18] stands 1.6 µM; under `NS(=O)(=O)N1CCN(c2ccc(C(F)(F)F)cn2)CC1` [Example 19], 0.08 µM.
The same measure, in the same setting: under `NS(=O)(=O)N1CCN(c2ccc(C(F)(F)F)cc2[N+](=O)[O-])CC1` [Example 20] stands 0.3 µM.
Consider `CS(=O)(=O)c1ccc(N2CCN(S(N)(=O)=O)CC2)c(F)c1` [Example 21], for which the IC50 in data set [1] is 0.2 µM. Further, the “24 h food intake” value with male C57Bl/6 mice is given as 76 % of control.
